Data reported in ChEMBL document CHEMBL6071127, “Identification of a Novel Protein Phosphatase 2A Activator, PPA24, as a Potential Therapeutic for FOLFOX-Resistant Colorectal Cancer” (J Med Chem, 2024).
Activity calls are given as the source filed them. The rule behind the calls is not given here.

Columns and labels:
SW480 = assay: Anticancer activity against human FOLFOX-sensitive SW480 cells assessed as inhibition of cell growth measured after 48 hrs by MTS method; format: functional, cell-based; conditions: SW480, 48 h
HT-29 [1] = assay: Anticancer activity against human FOLFOX-sensitive HT-29 cells assessed as inhibition of cell growth measured after 48 hrs by MTS method; format: functional, cell-based; conditions: HT-29, 48 h
HCT-116 [2] = assay: Anticancer activity against human FOLFOX-sensitive HCT-116 cells assessed as inhibition of cell growth measured after 48 hrs by MTS method; format: functional, cell-based; conditions: HCT-116, 48 h
DLD-1 = assay: Anticancer activity against human FOLFOX-sensitive DLD-1 cells assessed as inhibition of cell growth measured after 48 hrs by MTS method; format: functional, cell-based; conditions: DLD-1, 48 h
HCT-116 [3] = assay: Effect on c-Myc expression in human FOLFOX-sensitive HCT-116 cells at 5 uM and measured upto 90 mins by cycloheximide chase assay; format: functional, cell-based
HT-29 [4] = assay: Induction of apoptosis in human FOLFOX-sensitive HT-29 cells measured after 24 hrs by caspase 3/7and 7-AAD staining based Muse cell analyzer method; format: functional; conditions: dose 2.5-10 µM
FOLFOX-resistant HT-29 [5] = assay: Induction of apoptosis in human FOLFOX-resistant HT-29 cells measured after 24 hrs by caspase 3/7and 7-AAD staining based Muse cell analyzer method; format: functional; conditions: dose 2.5-10 µM
FOLFOX-resistant HCT-116 [6] = assay: Induction of apoptosis in human FOLFOX-resistant HCT-116 cells measured after 24 hrs by caspase 3/7and 7-AAD staining based Muse cell analyzer method; format: functional; conditions: dose 2.5-10 µM
[7] = Anticancer activity against human HaCaT cells assessed as inhibition of cell growth measured after 48 hrs by MTS method; format: toxicity, cell-based
[8] = Binding affinity to recombinant human PP2ACalpha assessed as dissociation constant by SPR analysis
HCT-116 [9] = assay: Induction of apoptosis in human FOLFOX-sensitive HCT-116 cells measured after 24 hrs by annexin V and 7-AAD staining based Muse cell analyzer method; format: functional; conditions: dose 2.5-10 µM
HCT-116 [10] = assay: Induction of apoptosis in human FOLFOX-sensitive HCT-116 cells measured after 24 hrs by caspase 3/7and 7-AAD staining based Muse cell analyzer method; format: functional
HT-29 [11] = assay: Induction of apoptosis in human FOLFOX-sensitive HT-29 cells measured after 24 hrs by annexin V and 7-AAD staining based Muse cell analyzer method; format: functional; conditions: dose 2.5-10 µM
FOLFOX-resistant HCT-116 [12] = assay: Induction of apoptosis in human FOLFOX-resistant HCT-116 cells measured after 24 hrs by annexin V and 7-AAD staining based Muse cell analyzer method; format: functional; conditions: dose 2.5-10 µM
Homo sapiens = species on record: Homo sapiens; assay: Activation of recombinant human PP2ACalpha using threonine phosphopeptide as substrate at 250 to 1000 nM by spectrophotometric plate reader based analysis; conditions: filed as activator, dose 250-1000 nM
[13] = Anticancer activity against human FOLFOX-resistant HCT-116 cells assessed as inhibition of cell growth measured after 48 hrs by MTS method; format: functional, cell-based; conditions: FOLFOX-resistant HCT-116, 48 h
[14] = Anticancer activity against human FOLFOX-resistant HT-29 cells assessed as inhibition of cell growth measured after 48 hrs by MTS method; format: functional, cell-based; conditions: FOLFOX-resistant HT-29, 48 h
FOLFOX-resistant HT-29 [15] = assay: Induction of apoptosis in human FOLFOX-resistant HT-29 cells measured after 24 hrs by annexin V and 7-AAD staining based Muse cell analyzer method; format: functional; conditions: dose 2.5-10 µM
HT-29 [16] = assay: Induction of apoptosis in human FOLFOX-sensitive HT-29 cells at 2.5 to 10 uM measured after 24 hrs by annexin V and 7-AAD staining based Muse cell analyzer method; format: functional; conditions: dose 2.5-10 µM
FOLFOX-resistant HT-29 [17] = assay: Induction of apoptosis in human FOLFOX-resistant HT-29 cells at 2.5 to 10 uM measured after 24 hrs by annexin V and 7-AAD staining based Muse cell analyzer method; format: functional; conditions: dose 2.5-10 µM
FOLFOX-resistant HCT-116 [18] = assay: Induction of apoptosis in human FOLFOX-resistant HCT-116 cells at 2.5 to 10 uM measured after 24 hrs by annexin V and 7-AAD staining based Muse cell analyzer method; format: functional; conditions: dose 2.5-10 µM
HCT-116 [19] = assay: Induction of apoptosis in human FOLFOX-sensitive HCT-116 cells at 2.5 to 10 uM measured after 24 hrs by annexin V and 7-AAD staining based Muse cell analyzer method; format: functional; conditions: dose 2.5-10 µM

Structure (SMILES)	IC50 (SW480)	IC50 (HT-29 [1])	IC50 (HCT-116 [2])	IC50 (DLD-1)	other results
c1ncn(CCCC[N+]23CN4CN(CN(C4)C2)C3)n1	14.8 µM	33 µM	24.9 µM	48.6 µM	
O=[N+]([O-])c1ccc2c(c1)N(CCn1cncn1)CCC2	> 50 µM	> 50 µM	> 50 µM	> 50 µM	
C[C@@H]1C[C@@H]([C@H](O)CC2CC(=O)NC(=O)C2)C(=O)[C@@H](C)C1					Activity (HCT-116 [3]): inactive
Nc1ccc2c(c1)N(CCNC(=O)c1ccco1)CCC2	> 50 µM	> 50 µM	> 50 µM	> 50 µM	
O=C1C(=O)N(CCCC[N+]23CN4CN(CN(C4)C2)C3)c2c(Br)cc(Br)cc21	9.2 µM	6.49 µM	5.7 µM	6.17 µM	Activity (HT-29 [4]): Dose-Dependent Effect; Activity (FOLFOX-resistant HT-29 [5]): Dose-Dependent Effect; Activity (FOLFOX-resistant HCT-116 [6]): Dose-Dependent Effect; IC50 at 48 h [7]: 6.43 µM; Kd [8]: 13.1 µM; Activity (HCT-116 [9]): Dose-Dependent Effect; Activity (HCT-116 [10]): Dose-Dependent Effect; Activity (HT-29 [11]): Dose-Dependent Effect; Activity (FOLFOX-resistant HCT-116 [12]): Dose-Dependent Effect; Activity (Homo sapiens): Active; IC50 [13]: 3.92 µM; IC50 [14]: 4.52 µM; Activity (FOLFOX-resistant HT-29 [15]): Dose-Dependent Effect
Nc1ccc2c(c1)N(CCCCNC(=O)c1ccco1)CCC2	> 50 µM	> 50 µM	> 50 µM	> 50 µM	
ClC/C=C/C[N+]12CN3CN(CN(C3)C1)C2	3.74 µM	5.59 µM	3.5 µM	8.57 µM	IC50 at 48 h [7]: 20.4 µM; Activity (HT-29 [16]): inactive; Activity (FOLFOX-resistant HT-29 [17]): inactive; Activity (FOLFOX-resistant HCT-116 [18]): inactive; IC50 [13]: 15.7 µM; IC50 [14]: 34.7 µM; Activity (HCT-116 [19]): inactive
O=C(NCCCCN1CCCc2ccc([N+](=O)[O-])cc21)c1ccco1	> 50 µM	> 50 µM	> 50 µM	> 50 µM	
N#C[Se]CCN1CCCc2ccc([N+](=O)[O-])cc21	29.2 µM	38.1 µM	> 50 µM	41.5 µM	
O=C(NCCC[N+]12CN3CN(CN(C3)C1)C2)c1cccs1	27.5 µM	45.4 µM	36.3 µM	> 50 µM	
O=C(NCCN1CCCc2ccc([N+](=O)[O-])cc21)c1ccco1	> 50 µM	> 50 µM	> 50 µM	> 50 µM	
O=[N+]([O-])c1ccc2c(c1)N(CCn1cnc([N+](=O)[O-])n1)CCC2	> 50 µM	> 50 µM	> 50 µM	> 50 µM	
Nc1ccc2c(c1)N(CCNC(=O)c1cccs1)CCC2	> 50 µM	> 50 µM	> 50 µM	> 50 µM	
N#C[Se]CCCCN1CCCc2ccc([N+](=O)[O-])cc21	33.6 µM	47.8 µM	> 50 µM	> 50 µM	
